# Measured values reported in EP2490021A1, “Modulators of PRR and GPCR signalling” (Biotempt B.V., priority 2011, dated 2012).
# Entries after “also recorded” stand apart in the source; their conditions may differ. Where a SMILES comes first, the peptide text is derived from it.
# Key:
# Format in all cases: cell-based, human
# neutrophils [1] = test: Phosphoprotein array, LPS-stimulated neutrophils; settings: 1 µg/mL LPS, pre-stimulated with 20 ng/mL
# Procedure: (§1) Blood was drawn from healthy volunteers into tubes containing citrate as an anticoagulant. Neutrophils were isolated by using a Polymorphprep kit (Nicomed, Oslo, Norway) according to the manufacturer's instructions; monocytes were purified with magnetic beads (Miltenyi Biotech). The purity of the cells, as assessed by flow cytometry (anti-CD45, 14, DR, and CD66b), was > 93%. For each cell type, samples from two different donors were examined.
# (§2) 5x10^6 cells were incubated in the presence of 1 µg/mL LPS (E.coli O111:B4, Sigma-Aldrich) or pre-stimulated with 20 ng/mL of EA-230 (peptide AQGV) and then incubated in the presence of 1 µg/mL LPS for 0, 5, 15 and 30 minutes (37°C, 5% CO2). At the end of the incubation period, the cells were put on ice, and proteins were extracted using Phosphosafe reagent (Novagen), according to the recommendations of the manufacturer. The total protein concentration was measured using a conventional Lowry assay (Pierce).
# (§3) To determine the relative levels of protein phosphorylation, a human PhosphoKinase array (RnD Systems) was used according to the recommendations of the manufacturer. 200 µg of protein were used per array. Spot pixel density was determined for each protein and ratios to the controls (no LPS and no EA stimulation) were measured.
# monocytes = test: Phosphoprotein array, LPS-stimulated monocytes; settings: 1 µg/mL LPS, pre-incubation with 20 ng/mL
# Procedure: as §1, §2, §3
# NF-kB = NF-kB p50 and p65 subunit activity ELISA, LPS-stimulated neutrophils; settings: 1 µg/mL LPS 15 minutes, both concentrations, p=0.03 vs LPS alone
# Procedure: (§4) Blood was drawn from 2 healthy volunteers into tubes containing citrate as an anticoagulant. Neutrophils were isolated by using a Polymorphprep kit (Nicomed, Oslo, Norway) according to the manufacturer's instructions. The purity of the cells, as assessed by flow cytometry (anti-CD45, 14, DR, and CD66b), was > 93%.
# […] At the end of the incubation period, the cells were put on ice, and nuclear proteins were extracted using Nuclear Extraction Kit (Cayman chemicals, Ann Harbor, USA), according to the recommendations of the manufacturer. The total protein concentration was measured using a conventional Lowry assay (Pierce).
# P50 and p65 NF-kB subunit activity was determined by ELISA (Cayman chemicals). This assay allows the determination of the true NF-kB activity by measuring the binding of its subunits to specific consensus sequences. This assay is similar to the traditional EMSA, though more sensitive. 10 µg of proteins were used per assay. Analysis was performed in duplicate.
# neutrophils [2] = test: LPS-driven cytokine production by neutrophils; settings: 1 µg/mL LPS 24 hours, both concentrations (20 or 50 ng/mL), p=0.01 versus LPS
# Procedure: as §4
# 5x10^5 cells were incubated in the presence of 1 µg/mL LPS (E.coli O111:B4, Sigma-Aldrich) or pre-stimulated with 20 or 50 ng/mL of EA-230 (peptide AQGV) and then incubated in the presence of 1 µg/mL LPS for 24 hours (37°C, 5% CO2). At the end of the incubation period, supernatants were harvested and concentrations of TNF-α, IL-6, and IL-8 were measured by flow cytometry using Bender Flowcytomics kit (Bender Med systems, Burlingame, USA) according to the recommendations of the manufacturer. Concentrations of IL-10 were determined by ELISA (RnD Systems). Measurements were done in duplicate.
# TLR-4 [3] = test: Kinase phosphorylation in PBMC-derived monocytes challenged with TLR-4 ligand LPS; settings: 2 µg/ml LPS, at 20 ng/ml and at 50 ng/ml
# Procedure: (§5) PMBC-derived monocytes were isolated from healthy volunteers (hPBMCs) according to routine procedures^1. […]
# (§6) Following stimulation, the phosphorylation status of p38MAPK, JNK, PKB, and P42/p44MAPK/ERK1,2 was analysed^3. Results were corrected for differences using co-measurement of β-actin^4.
# NOD = test: Kinase phosphorylation in PBMC-derived monocytes challenged with NOD ligand peptidoglycan; settings: 2 µg/ml PGN, at 50 ng/ml
# Procedure: as §5, §6
# FPR = test: Kinase phosphorylation in PBMC-derived monocytes challenged with fMLP; settings: 1 µM fmlp, at both 20 ng/ml and 50 ng/ml
# Procedure: PMBC-derived monocytes were isolated from healthy volunteers (hPBMCs) according to routine procedures^1. Subsequently PMBC were incubated with 20 ng/ml peptide AQGV (Biotempt peptide, which was freshly prepared as a 20 mg/ml stock solution in bidistilled water) or treated with the cell culture medium alone for 10 min. hPMBC were challenged with: • 1) 2 µg/ml TLR-4 ligand LPS ^2 for 1 min, 5 min, 10 min and 20 min, • 2) 2 µg/ml NOD ligand peptidoglycan (PGN) for 1 min, 5 min, 10 min and 20 min, or • 3) 1 µM fmlp (formyl-Met-Leu-Phe) for 1 min, 5 min, 10 min and 20 min.
# as §6
# TLR-4 [4] = test: PKB phosphorylation in hPBMC challenged with LPS (Example 4); settings: 2 µg/ml LPS
# Procedure: (§7) Subsequently PMBC were incubated with 1.3, 3.2, 8, 20 and 50 ng/ml peptide AQGV , LQGV, AQG, LQG, QGV, AQ, LQ, GV or QG (peptide, which was freshly prepared as a 20 mg/ml stock solution in bidistilled water) or treated with the cell culture medium alone for 10 min.
# (§8) hPMBC were challenged with 2 µg/ml TLR-4 ligand LPS for 1 min, 5 min, 10 min and 20 min.
# TLR-4 [5] = test: p38 MAPK phosphorylation in hPBMC challenged with LPS (Example 4); settings: 2 µg/ml LPS; for p38 MAPK phosphorylation: low concentrations of peptide, compared to control (LPS stimulated, no peptide added); for TLR-4 mediated signalling induced by LPS, p38 MAPK phosphorylation status: peptide at 20 ng/ml
# Procedure: as §7, §8
# [6] = low concentrations, i.e. below 20 ng/ml, compared to control (LPS stimulated, no peptide added)
structure (smiles),measurement,setting,value
CC(C)[C@H](NC(=O)CNC(=O)[C@H](CCC(N)=O)NC(=O)[C@H](C)N)C(=O)O [AQGV] (H-AQGV-OH),eNOS phosphorylation,neutrophils [1],increase
same,LPS-driven phosphorylation of CREB,neutrophils [1]; at 15 minutes,blunted
same,LPS-driven phosphorylation of ERK1/2,neutrophils [1]; at 15 minutes,blunted
same,LPS-driven phosphorylation of GSK 3a/b,neutrophils [1]; at 15 minutes,blunted
same,LPS-driven phosphorylation of MEK1/2,neutrophils [1]; at 15 minutes,blunted
same,LPS-driven phosphorylation of P38 MAPK,neutrophils [1]; at 15 minutes,blunted
same,eNOS phosphorylation,monocytes,strongly stimulated
same,LPS-driven phosphorylation of AMPK,monocytes; at 15 minutes,prevented this effect
same,LPS-driven phosphorylation of ERK1/2,monocytes; at 15 minutes,prevented this effect
same,LPS-driven phosphorylation of JNK,monocytes; at 15 minutes,prevented this effect
same,LPS-driven phosphorylation of MSK,monocytes; at 15 minutes,prevented this effect
same,LPS-driven phosphorylation of P38 MAPK,monocytes; at 15 minutes,prevented this effect
same,LPS-driven phosphorylation of PKB/AKT,monocytes; at 15 minutes,prevented this effect
same,LPS induced NF-kB p50 activity,NF-kB,reduced this LPS induced activation
same,LPS induced NF-kB p65 activity,NF-kB,reduced this LPS induced activation
same,LPS induced production of IL-6,neutrophils [2],reduced the cytokine production almost to control values
same,LPS induced production of IL-8,neutrophils [2],reduced the cytokine production almost to control values
same,LPS induced production of IL-10,neutrophils [2],reduced the cytokine production almost to control values
same,LPS induced production of TNF-α,neutrophils [2],reduced the cytokine production almost to control values
same,"TLR-4 mediated signalling induced by LPS, JNK phosphorylation status",TLR-4 [3],reduced
same,"TLR-4 mediated signalling induced by LPS, P42/p44MAPK/ERK1,2 phosphorylation status",TLR-4 [3],reduced
same,"TLR-4 mediated signalling induced by LPS, PKB phosphorylation status",TLR-4 [3],reduced
same,"TLR-4 mediated signalling induced by LPS, p38MAPK phosphorylation status",TLR-4 [3],reduced
same,"NOD-signalling induced by peptidoglycan, JNK phosphorylation status",NOD,seemingly stimulates
same,"NOD-signalling induced by peptidoglycan, P42/p44MAPK/ERK1,2 phosphorylation status",NOD,seemingly stimulates
same,"NOD-signalling induced by peptidoglycan, PKB phosphorylation status",NOD,seemingly stimulates
same,"NOD-signalling induced by peptidoglycan, p38MAPK phosphorylation status",NOD,seemingly stimulates
same,FPR signalling induced by fMLP,FPR,slightly attenuated
same,"FPR signalling induced by fMLP, PKB phosphorylation",FPR,"induction of PKB phosphorylation was initially seen, followed by downregulation"
same,"FPR signalling induced by fMLP, p38MAPK phosphorylation",FPR,downregulation
same,"TLR-4 mediated signalling induced by LPS, PKB phosphorylation status",TLR-4 [4]; [6],already display a modulation
same,"TLR-4 mediated signalling induced by LPS, PKB phosphorylation status",TLR-4 [4]; peptide at 20 ng/ml,reduced
same,p38 MAPK phosphorylation,TLR-4 [5],already modulated
same,"TLR-4 mediated signalling induced by LPS, p38 MAPK phosphorylation status",TLR-4 [5],initial downregulation
C[C@H](N)C(=O)N[C@@H](CCC(N)=O)C(=O)O [AQ] (H-Ala-Gln-OH),"TLR-4 mediated signalling induced by LPS, PKB phosphorylation status",TLR-4 [4]; [6],already display a modulation
same,"TLR-4 mediated signalling induced by LPS, PKB phosphorylation status",TLR-4 [4]; peptide at 20 ng/ml,inhibited
same,p38 MAPK phosphorylation,TLR-4 [5],already modulated
same,"TLR-4 mediated signalling induced by LPS, p38 MAPK phosphorylation status",TLR-4 [5],slight overall downregulation
CC(C)C[C@H](N)C(=O)N[C@@H](CCC(N)=O)C(=O)NCC(=O)N[C@H](C(=O)O)C(C)C [LQGV] (H-LQGV-OH),"TLR-4 mediated signalling induced by LPS, PKB phosphorylation status",TLR-4 [4]; peptide at 20 ng/ml,reduced; also recorded: significantly downregulated
same,p38 MAPK phosphorylation,TLR-4 [5],already modulated
same,"TLR-4 mediated signalling induced by LPS, p38 MAPK phosphorylation status",TLR-4 [5],initial downregulation
CC(C)C[C@H](N)C(=O)N[C@@H](CCC(N)=O)C(=O)NCC(=O)O [LQG] (H-Leu-Gln-Gly-OH),p38 MAPK phosphorylation,TLR-4 [5],already modulated
same,"TLR-4 mediated signalling induced by LPS, p38 MAPK phosphorylation status",TLR-4 [5],initial downregulation
CC(C)C[C@H](N)C(=O)N[C@@H](CCC(N)=O)C(=O)O [LQ] (H-Leu-Gln-OH),"TLR-4 mediated signalling induced by LPS, PKB phosphorylation status",TLR-4 [4]; [6],already display a modulation
same,"TLR-4 mediated signalling induced by LPS, PKB phosphorylation status",TLR-4 [4]; peptide at 20 ng/ml,inhibited
CC(C)[C@H](NC(=O)CNC(=O)[C@@H](N)CCC(N)=O)C(=O)O [QGV] (H-Gln-Gly-Val-OH),"TLR-4 mediated signalling induced by LPS, PKB phosphorylation status",TLR-4 [4]; [6],already display a modulation
same,"TLR-4 mediated signalling induced by LPS, PKB phosphorylation status",TLR-4 [4]; peptide at 20 ng/ml,"at least initial, inhibition"
same,p38 MAPK phosphorylation,TLR-4 [5],already modulated
NC(=O)CC[C@H](N)C(=O)NCC(=O)O [QG] (H-Gln-Gly-OH),p38 MAPK phosphorylation,TLR-4 [5],already modulated
same,"TLR-4 mediated signalling induced by LPS, p38 MAPK phosphorylation status",TLR-4 [5],slight upregulation
